Assay results reported in patent publication US7449463B2, “Morpholinyl containing benzimidazoles as inhibitors of respiratory syncytial virus replication” (Tibotec Pharmaceuticals Ltd., priority 2003, dated 2008).

Test system: Respiratory Syncytial Virus
Experiment: microbe, parasite or virus in culture
Type: cell-based
Conditions: RSV-infected HeLa cells, MTT readout seven days after infection; −log of EC50 in molar units
Description: In vitro Screening for Activity against Respiratory Syncytial Virus.
The percent protection against cytopathology caused by viruses (antiviral activity or EC50) achieved by tested compounds and their cytotoxicity (CC50) are both calculated from dose-response curves. The selectivity of the antiviral effect is represented by the selectivity index (SI), calculated by dividing the CC50 (cytotoxic dose for 50% of the cells) by the EC50 (antiviral activity for 50% of the cells).
Automated tetrazolium-based colorimetric assays were used for determination of EC50 and CC50 of test compounds. Flat-bottom, 96-well plastic microtiter trays were filled with 180 μl of Eagle's Basal Medium, supplemented with 5% FCS (0% for FLU) and 20 mM Hepes buffer. Subsequently, stock solutions (7.8× final test concentration) of compounds were added in 45 μl volumes to a series of triplicate wells so as to allow simultaneous evaluation of their effects on virus- and mock-infected cells. Five five-fold dilutions were made directly in the microtiter trays using a robot system. Untreated virus controls, and HeLa cell controls were included in each test. Approximately 100 TCID50 of Respiratory Syncytial Virus was added to two of the three rows in a volume of 50 μl. The same volume of medium was added to the third row to measure the cytotoxicity of the compounds at the same concentrations as those used to measure the antiviral activity. After two hours of incubation, a suspension (4×10^5 cells/ml) of HeLa cells was added to all wells in a volume of 50 μl. The cultures were incubated at 37° C. in a 5% CO2 atmosphere. Seven days after infection the cytotoxicity and the antiviral activity was examined spectrophotometrically. To each well of the microtiter tray, 25 μl of a solution of MTT (3-(4,5-dimethylthiazol-2-yl)-2,5-diphenyltetrazolium bromide) was added. The trays were further incubated at 37° C. for 2 hours, after which the medium was removed from each cup. Solubilization of the formazan crystals was achieved by adding 100 μl 2-propanol. Complete dissolution of the formazan crystals were obtained after the trays have been placed on a plate shaker for 10 min. Finally, the absorbances were read in an eight-channel computer-controlled photometer (Multiskan MCC, Flow Laboratories) at two wavelengths (540 and 690 nm). The absorbance measured at 690 nm was automatically subtracted from the absorbance at 540 nm, so as to eliminate the effects of non-specific absorption.

Molecule	Activity
Cc1ccc(O)c(Cn2c(NCCCN3CCOCC3)nc3ccccc32)n1 [compound 155]	6.8
Cc1cc(C)cc(N(CCCCCO)Cc2ccc3nc(NCCCN4CCOCC4)n(Cc4nc(C)ccc4O)c3c2)c1 [Compound 64]	9.3
C#Cc1ccc(CCO)c(NCc2ccc3nc(NCCCN4CCOCC4)n(Cc4nc(C)ccc4O)c3c2)c1 [Compound 10]	9.6
Cc1cccc(N(CCO)Cc2ccc3nc(NCCCN4CCOCC4)n(Cc4nc(C)ccc4O)c3c2)c1 [Compound 86]	9.3
Cc1ccc(O)c(Cn2c(NCCCN3CCOCC3)nc3ccc(CNc4cccc(C)c4CO)cc32)n1 [Compound 43]	8.2
Cc1ccc(CCC(N)=O)c(NCc2ccc3nc(NCCCN4CCOCC4)n(Cc4nc(C)ccc4O)c3c2)c1 [Compound 16]	9.3
Cc1ccc(O)c(Cn2c(NCCCN3CCOCC3)nc3ccc(CNc4cc(C(N)=O)ccc4CCO)cc32)n1 [Compound 44]	8.1
COc1ccc(CCCO)c(NCc2ccc3nc(NCCCN4CCOCC4)n(Cc4nc(C)ccc4O)c3c2)c1 [Compound 14]	9.4
Cc1ccc(O)c(Cn2c(NCCCN3CCOCC3)nc3ccc(CN(CCO)c4cccc(Br)c4)cc32)n1 [Compound 85]	9.3
Cc1ccc(O)c(Cn2c(NCCCN3CCOCC3)nc3ccc(CNc4cc(C(F)(F)F)ccc4CCCO)cc32)n1 [Compound 13]	9.5
Cc1ccc(O)c(Cn2c(NCCCN3CCOCC3)nc3ccc(CNc4cccc(CCO)c4)cc32)n1 [Compound 47]	7.9
Cc1ccc(O)c(Cn2c(NCCCN3CCOCC3)nc3ccc(CN(CCO)c4ccccc4)cc32)n1 [Compound 97]	8.5
Cc1ccc(O)c(Cn2c(NCCCN3CCOCC3)nc3ccc(CN(CCO)c4ccccc4C)cc32)n1 [Compound 110]	7.8
Cc1ccc(O)c(Cn2c(NCCCN3CCOCC3)nc3ccc(CNc4cccc(Cl)c4)cc32)n1 [Compound 31]	8.6
Cc1ccc(O)c(Cn2c(NCCCN3CCOCC3)nc3ccc(CNc4cccc(F)c4)cc32)n1 [Compound 35]	8.5
Cc1ccc(O)c(Cn2c(NCCCN3CCOCC3)nc3ccc(CNc4cc(C(C)C)ccc4CCO)cc32)n1 [Compound 17]	9.3
C#Cc1cccc(NCc2ccc3nc(NCCCN4CCOCC4)n(Cc4nc(C)ccc4O)c3c2)c1 [Compound 30]	8.6
Cc1ccc(O)c(Cn2c(NCCCN3CCOCC3)nc3ccc(CNc4cc(C#N)ccc4CCO)cc32)n1 [Compound 1]	10
2-[5,7-dimethyl-2-(2-morpholin-4-ylethyl-piperidin-4-ylamino)-benzoindazol-1-ylmethyl]-6-methyl-pyridin-3-ol [Compound 162]	7.9
Cc1ccc(O)c(Cn2c(NCCCN3CCOCC3)nc3ccc(CNc4ccccc4CN)cc32)n1 [Compound 108]	8
Cc1ccc(O)c(Cn2c(NCCCN3CCOCC3)nc3ccc(CNc4ccc(S(N)(=O)=O)cc4)cc32)n1 [Compound 37]	8.5
C#Cc1cccc(N(CCO)Cc2ccc3nc(NCCCN4CCOCC4)n(Cc4nc(C)ccc4O)c3c2)c1 [Compound 99]	8.5
Cc1cccc(N(CCCCO)Cc2ccc3nc(NCCCN4CCOCC4)n(Cc4nc(C)ccc4O)c3c2)c1 [Compound 92]	8.8
COCCN(Cc1ccc2nc(NCCCN3CCOCC3)n(Cc3nc(C)ccc3O)c2c1)c1cc(C)cc(C)c1 [Compound 82]	8.6

Same assay, conditions: human respiratory syncytial virus, 168 h; RSV-infected HeLa cells, MTT readout seven days after infection; −log of EC50 in molar units

Molecule	EC50 [nM]
Cc1cc(C)cc(NCc2ccc3nc(NCCCN4CCOC(CCO)C4)n(Cc4nc(C)ccc4O)c3c2)c1 (stereo not drawn) [Compound 181, 2-(6-[(3,5-Dimethyl-phenylamino)-methyl]-2-{3-[2-(2-hydroxy-ethyl)-morpholin-4-yl]-propylamino}-benzoimidazol-1-ylmethyl)-6-methyl-pyridin-3-ol]	6.31

Same assay, conditions: pEC50 (−log of EC50 when expressed in molar units), protection against RSV cytopathology

Molecule	Activity
Cc1cccc(NCc2ccc3c(c2)nc(NCCCN2CCOCC2)n3C2CCCc3nc(C)c(C)nc32)c1CCO (stereo not drawn) [Compound 292]	7
C#Cc1ccc(CCO)c(NCc2ccc3nc(NCCCN4CCOCC4)n(Cc4cccc5cccnc45)c3c2)c1 [Compound 235]	8.3
Cc1cccc(Cn2c(NCCCN3CCOCC3)nc3ccc(CNc4cccc(C)c4CCO)cc32)n1 [Compound 335]	5.5
COc1ccc(C)nc1Cn1c(NCCCN2CCOCC2)nc2ccc(CNc3ccc(C)cc3CO)cc21 [Compound 280]	7.1
Cc1nc2c(nc1C)C(n1c(NCCCN3CCOCC3)nc3cc(CNc4ccccc4C(N)=O)ccc31)CCC2 (stereo not drawn) [Compound 340]	5.3
COc1ccc(C)nc1Cn1c(NCCCN2CCOCC2)nc2cc(CNc3cc(C)ccc3CCCO)ccc21 [Compound 348]	4.8
Cc1cc(C)cc(N(CCO)Cc2ccc3nc(NCCCN4CCOCC4)n(Cc4cccc(C)n4)c3c2)c1 [Compound 281]	7.1
Cc1ccc(CCCO)c(NCc2ccc3c(c2)nc(NCCCN2CCOCC2)n3Cc2cccc(C)n2)c1 [Compound 350]	4.7
Cc1ccc(CCCO)c(NCc2ccc3nc(NCCCN4CCOCC4)n(Cc4cccc(C)n4)c3c2)c1 [Compound 274]	7.2
Cc1cccc(NCc2ccc3c(c2)nc(NCCCN2CCOCC2)n3C2CCCc3nc(C)c(C)nc32)c1CO (stereo not drawn) [Compound 293]	7
COc1ccc(C)nc1Cn1c(NCCCN2CCOCC2)nc2ccc(CNc3ccccc3CO)cc21 [Compound 279]	7.1
Cn1cnc2c(Cn3c(NCCCN4CCOCC4)nc4ccc(CNc5cc(C(F)(F)F)ccc5CCCO)cc43)cccc21 [Compound 241]	7.9
COc1ccc(C)nc1Cn1c(NCCCN2CCOCC2)nc2ccc(CN(CCCC(N)=O)c3cc(C)cc(C)c3)cc21 [Compound 210, -{(3,5-Dimethyl-phenyl)-[3-(3-methoxy-6-methyl-pyridin-2-ylmethyl)-2-(3-morpholin-4-yl-propylamino)-3H-benzoimidazol-5-ylmethyl]-amino}-butyramide]	9
Cc1nc2c(nc1C)C(n1c(NCCCN3CCOCC3)nc3cc(CNc4cc(Cl)cc(Cl)c4)ccc31)CCC2 (stereo not drawn) [Compound 331]	5.7
Cc1cccc(NCc2ccc3nc(NCCCN4CCOCC4)n(Cc4nc(C)c(C)nc4C)c3c2)c1CO [Compound 285]	7.1
Cc1nc2c(nc1C)C(n1c(NCCCN3CCOCC3)nc3cc(CNc4ccccc4CO)ccc31)CCC2 (stereo not drawn) [Compound 287]	7.1
Cn1cnc2c(Cn3c(NCCCN4CCOCC4)nc4ccc(CNc5cc(Br)ccc5CCCO)cc43)cccc21 [Compound 232]	8.4
C#Cc1cccc(NCc2ccc3nc(NCCCN4CCOCC4)n(Cc4nc(C)c(C)nc4C)c3c2)c1 [Compound 290]	7
Cc1cccc(NCc2ccc3nc(NCCCN4CCOCC4)n(Cc4nc(C)c(C)nc4C)c3c2)c1CCO [Compound 282]	7.1
Cc1cccc(Cn2c(NCCCN3CCOCC3)nc3ccc(CNc4cccc(C)c4CO)cc32)n1 [Compound 347]	4.9
Cn1cnc2c(Cn3c(NCCCN4CCOCC4)nc4ccc(CNc5ccccc5CCCO)cc43)cccc21 [Compound 224]	8.5
OCCCc1ccc(C(F)(F)F)cc1NCc1ccc2nc(NCCCN3CCOCC3)n(Cc3cc(Br)ccc3O)c2c1 [Compound 217]	8.7
Cn1cnc2c(Cn3c(NCCCN4CCOCC4)nc4ccc(CNc5ccccc5CCC(N)=O)cc43)cccc21 [Compound 238]	7.9
